Common to all, as to type: in vivo, mouse
In one test the test system is total myostatin in serum. Description: Circulating total myostatin in serum (acidification ELISA), dexamethasone model. The conditions noted are these: as compared to apitegromab. An excerpt: Briefly, serum samples were acidified at low pH (e.g., pH ˜2.5) to dissociate the bound antibody from the immune complex and to convert all myostatin in the sample to the active form of growth factor (i.e., mature myostatin). Samples were then neutralized and assayed for the presence of mature myostatin on ELISA plates coated with anti-mature myostatin antibodies as capture reagents.
For orientation: ELISA stands for enzyme-linked immunosorbent assay.

For test [1], the system named is male C57/BL6 mice on high fat diet. Description: Diet-induced obesity model, Ab109 with 0.01 or 0.04 mg/kg semaglutide (Example 9). The conditions noted are these: for loss in quadriceps weight: FIG. 21A. As to the method: Male C57/BL6 male mice (n=8/group) were placed on a 60% high fat diet at ˜6 weeks of age and maintained on the 60% high fat diet until 21 weeks of age (Groups 1-12), at which time the study began (day −7). On day −7, animals in groups 1-12 were switched to a 45% high fat diet and maintained on the 45% high fat diet until the animals were terminated. […] Body weight was measured three times per week and qNMR measurements of lean mass and fat mass were obtained pre-dose on day 0 and on days 7, 14 and 21. Fasting glucose was measured on day 18 after a 4 hour fast.
Animals in groups 3-12 were dosed with semaglutide daily for 3 weeks, then terminated. Animals in groups 1, 3, and 4 were treated with IgG control antibody, and those in groups 2, 5-12 were treated with myostatin activation inhibiting antibody treatment, for 3 weeks.
At termination, left gastrocnemius and quadriceps muscles were removed and frozen; the liver was weighed, one lobe was frozen; epididymal (perigonadal) adipose tissue was removed and weighed; inguinal (subcutaneous) adipose tissue was removed and weighed; and a terminal serum bleed was obtained.

For test [2] the test system is unchanged. The experiment in a line: Diet-induced obesity model, semaglutide with Ab109, withdrawal and continuous arms (Example 6). The conditions noted are these: for Relative Fat Mass Day 63 (% Body Fat): 60%/45% high fat diet. As to the method:
Male C57/BL6 male mice (n=8/group) were either fed regular mouse chow (Group 1) or placed on a 60% high fat diet at six weeks of age and maintained on the 60% high fat diet until 21 weeks of age (Groups 2-8), at which time the study began (day 0). On day 0, animals in groups 2-8 were switched to a 45% high fat diet and maintained on the 45% high fat diet until the animals were terminated. […] Body weight was measured three times per week and qNMR measurements of lean mass and fat mass were obtained on the days set forth.
Animals in groups 3 and 4 were dosed with semaglutide weekly for 14 days, then terminated. Animals in groups 5 and 6 (weight regain groups), were treated with semaglutide for 35 days, then the semaglutide treatment was ended while the myostatin activation inhibiting antibody treatment continued until the animals were terminated on day 63. The animals in Groups 7 and 8 were treated with semaglutide for 63 days, i.e., they remained on semaglutide until the study terminated on day 63.
At termination, left and right gastrocnemius muscles were removed and frozen; the liver was weighed, one lobe was fixed, and the remainder was frozen; epididymal adipose tissue was removed and weighed; subcutaneous adipose tissue was removed and weighed; and a terminal serum bleed was obtained.

The next test deals with circulating leptin. The experiment in a line: Circulating leptin (U-PLEX Metabolic Hormones Combo 1), Example 6. The conditions noted are these: for Leptin Day 64 (circulating leptin): 60%/45% high fat diet. As to the method: Circulating leptin was measured using the U-PLEX Metabolic Hormones Combo 1 (mouse) according to manufacturer's instructions (Meso Scale Diagnostics, #K15306K-2). As expected, circulating leptin was higher in animals fed the high fat diet than animals fed a standard chow.

Where [3] appears, read: semaglutide 0.04 mg/kg day 7-35 (regain arm) with control hIgG.
[4] abbreviates: semaglutide 0.04 mg/kg day 7-63 with control hIgG.
Where [5] appears, read: semaglutide 0.04 mg/kg and hIgG.

On to “apitegromab: prior art myostatin-selective activation inhibitor antibody targeting pro/latent myostatin [reference compound]”, for which the “accumulation of total or latent myostatin in serum samples from dosed subjects” value in the test on total myostatin in serum was “increased accumulation”.

On to semaglutide [reference compound], for which the “loss in lean mass” value in test [1] (0.01 mg/kg semaglutide, FIG. 20B) stood at 4.7%. The lean mass lost entry in test [1] (0.04 mg/kg semaglutide and hIgG, 3 weeks, FIG. 20A) is given as “about 9.5%”. In addition, the results for the “loss in quadriceps weight” value in test [1] (semaglutide high dose (0.04 mg/kg)) and in test [1] (semaglutide low dose (0.01 mg/kg)) were −7.6% and −4.8%, respectively. Moreover, the entries for the “Relative Fat Mass Day 63 (% Body Fat)” value in test [2] (setting [3]) and in test [2] (setting [4]) were 28.69 % Body Fat and 14.84 % Body Fat, respectively. In addition, the “lean mass lost while on semaglutide” value in test [2] (setting [5]) was “about 4%”. For the same substance, the “net loss of lean mass at the end of the study” value in test [2] (setting [5]) is 2.5%. In test [2] (semaglutide 0.04 mg/kg, FIG. 14D), the fat mass result was “induced fat mass loss”. Further, the “Leptin Day 64 (circulating leptin)” value is recorded as 37.87 ng/mL with circulating leptin (setting [3]) and 6.357 ng/mL in the test on circulating leptin (setting [4]). In addition, the circulating leptin result in the test with circulating leptin (treatment arm as in the words, FIG. 14K) is reported as “Continuous semaglutide administration lowered circulating leptin”.

The values are drawn from patent US12338279B2, “Selective and potent inhibitory antibodies of myostatin activation” (SCHOLAR ROCK, INC., priority 2022, dated 2025).
